pEC50: −log10 of the molar value.
Key:
[1] = Compound induced cellular toxicity in HepG2 cells, ATPlite 1Step; assay type: cell-based; conditions: human, three days exposure, 50% reduction of total ATP vs no drug controls
Experimental: At day 3, post seeding cells are treated with ATPlite 1Step according to the manufacturer's instructions.

HBV in 2.2.15 cells = assay: 2.2.15 cells: viral product in cell lysates quantified via quantitative real time PCR; assay type: cell-based, hepatitis B virus (HBV); conditions: Hepatitis B virus, 120 h, day 5 post treatment, 50% reduction of viral product vs no drug controls, readout (qPCR, HBsAg or HBeAg) not specified for the column
Summary of the method: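 HBV product was measured at day 5 by lysate qPCR or by supernatant HBsAg/HBeAg ELISA, in 2.2.15 cells seeded at 35,000/well and exposed to 5-fold compound dilution series (0.5% DMSO). EC50 is 50% reduction of viral product relative to untreated controls.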

Compound	CC50 at 3 days [1] [µM]	pEC50 (HBV in 2.2.15 cells)
CC(C)(C)[C@@H]1Cn2ncc(-c3cccc(F)c3)c2-c2cc(=O)c(C(=O)O)cn21 [Example 103, (R)-6-(tert-butyl)-1-(3-fluorophenyl)-10-oxo-5,6-dihydro-10H-pyrazolo[1,5-a]pyrido[2,1-c]pyrazine-9-carboxylic acid]	> 25	> 7.00
COc1cccc(C(N)=O)c1-c1cc2n(n1)C[C@@H](C(C)(C)C)n1cc(C(=O)O)c(=O)cc1-2 [Example 52, (R)-6-(tert-butyl)-2-(2-carbamoyl-6-methoxyphenyl)-10-oxo-5,6-dihydro-10H-pyrazolo[1,5-a]pyrido[2,2-c]pyrazine-12-carboxylic acid]	> 25	6.00 to 6.70
COc1ccc(-c2nn3c(c2-c2ccc(OC)cc2)-c2cc(=O)c(C(=O)O)cn2[C@H](C(C)(C)C)C3)cc1 [Example 98, (R)-6-(tert-butyl)-1,2-bis(4-methoxyphenyl)-10-oxo-5,6-dihydro-10H-pyrazolo[1,5-a]pyrido[2,1-c]pyrazine-9-carboxylic acid]	> 25	> 7.00
CC(C)(C)[C@@H]1Cn2nc(C3CC3)c(-c3ccccc3O)c2-c2cc(=O)c(C(=O)O)cn21 [Example 165, (R)-6-(tert-butyl)-2-cyclopropyl-1-(2-hydroxyphenyl)-10-oxo-5,6-dihydro-10H-pyrazolo[1,5-a]pyrido[2,1-c]pyrazine-9-carboxylic acid]	> 25	> 7.00
CC(C)(C)[C@@H]1Cn2nc(-c3ccc(F)cc3)c(-c3ccc(F)cc3)c2-c2cc(=O)c(-c3ncn[nH]3)cn21 [Example 194, (R)-6-(tert-butyl)-1,2-bis(4-fluorophenyl)-9-(1H-1,2,4-triazol-5-yl)-5,6-dihydro-10H-pyrazolo[1,5-a]pyrido[2,1-c]pyrazin-10-one]	10 to 25	> 7.00
CC(C)[C@@H]1Cn2nc(C3CC3)c(-c3cccc(O)c3)c2-c2cc(=O)c(C(=O)O)cn21 [Example 142, (R)-2-cyclopropyl-1-(3-hydroxyphenyl)-6-isopropyl-10-oxo-5,6-dihydro-10H-pyrazolo[1,5-a]pyrido[2,1-c]pyrazine-9-carboxylic acid]	> 25	> 7.00
CC(C)(C)[C@@H]1Cn2nc(-c3ccc4c(c3)OCCO4)cc2-c2cc(=O)c(C(=O)O)cn21 [Example 18, (R)-6-(tert-butyl)-2-(2,3-dihydrobenzo[b][1,4]dioxin-6-yl)-10-oxo-5,6-dihydro-10H-pyrazolo[1,5-a]pyrido[2,2-c]pyrazine-12-carboxylic acid]	> 25	> 7.00
Cc1sccc1-c1c(C2CC2)nn2c1-c1cc(=O)c(C(=O)O)cn1[C@H](C(C)(C)C)C2 [Example 160, (R)-6-(tert-butyl)-2-cyclopropyl-1-(2-methylthiophen-3-yl)-10-oxo-5,6-dihydro-10H-pyrazolo[1,5-a]pyrido[2,1-c]pyrazine-9-carboxylic acid]	> 25	> 7.00
CC(C)(C)[C@@H]1Cn2nc(-c3ccccc3OCC3CC3)cc2-c2cc(=O)c(C(=O)O)cn21 [Example 75, (R)-6-(tert-butyl)-2-(2-(cyclopropylmethoxy)phenyl)-10-oxo-5,6-dihydro-10H-pyrazolo[1,5-a]pyrido[2,2-c]pyrazine-12-carboxylic acid]	> 25	> 7.00
CCCCOc1ccccc1-c1cc2n(n1)C[C@@H](C(C)(C)C)n1cc(C(=O)O)c(=O)cc1-2 [Example 78, (R)-2-(2-butoxyphenyl)-6-(tert-butyl)-10-oxo-5,6-dihydro-10H-pyrazolo[1,5-a]pyrido[2,2-c]pyrazine-12-carboxylic acid]	> 25	> 7.00
CC(C)(C)[C@@H]1Cn2ncc(-c3ccoc3)c2-c2cc(=O)c(C(=O)O)cn21 [Example 102, (R)-6-(tert-butyl)-1-(furan-3-yl)-10-oxo-5,6-dihydro-10H-pyrazolo[1,5-a]pyrido[2,1-c]pyrazine-9-carboxylic acid]	> 25	> 7.00
CC(C)(C)[C@@H]1Cn2nc(-c3cccc4nsnc34)cc2-c2cc(=O)c(C(=O)O)cn21 [Example 63, (R)-2-(benzo[c][1,2,5]thiadiazol-4-yl)-6-(tert-butyl)-10-oxo-5,6-dihydro-10H-pyrazolo[1,5-a]pyrido[2,2-c]pyrazine-12-carboxylic acid]	> 25	> 7.00
CC(C)(C)[C@@H]1Cn2nc(-c3cc(F)ccc3C#N)cc2-c2cc(=O)c(C(=O)O)cn21 [Example 42, (R)-6-(tert-butyl)-2-(2-cyano-5-fluorophenyl)-10-oxo-5,6-dihydro-10H-pyrazolo[1,5-a]pyrido[2,2-c]pyrazine-12-carboxylic acid]	> 25	> 7.00
COc1ccc(OCc2ccccc2)cc1-c1cc2n(n1)C[C@@H](C(C)(C)C)n1cc(C(=O)O)c(=O)cc1-2 [Example 36, (R)-2-(5-(benzyloxy)-2-methoxyphenyl)-6-(tert-butyl)-10-oxo-5,6-dihydro-10H-pyrazolo[1,5-a]pyrido[2,2-c]pyrazine-12-carboxylic acid]	> 25	> 7.00
CC(C)(C)[C@@H]1Cn2nc(-c3cc(F)ccc3F)cc2-c2cc(=O)c(C(=O)O)cn21 [Example 61, (R)-6-(tert-butyl)-2-(2,5-difluorophenyl)-10-oxo-5,6-dihydro-10H-pyrazolo[1,5-a]pyrido[2,2-c]pyrazine-12-carboxylic acid]	> 25	> 7.00
CC(C)[C@@H]1Cn2nc(-c3ccccc3)c(-c3ccccc3)c2-c2cc(=O)c(C(=O)O)cn21 [Example 179, (R)-6-isopropyl-10-oxo-1,2-diphenyl-5,6-dihydro-10H-pyrazolo[1,5-a]pyrido[2,1-c]pyrazine-9-carboxylic acid]	> 25	> 7.00
CC(C)(C)[C@@H]1Cn2nc(-c3cccc(F)c3)cc2-c2cc(=O)c(C(=O)O)cn21 [Example 2, (R)-6-(tert-butyl)-2-(3-fluorophenyl)-10-oxo-5,6-dihydro-10H-pyrazolo[1,5-a]pyrido[2,2-c]pyrazine-12-carboxylic acid]	> 25	> 7.00
CC(C)(C)[C@@H]1Cn2nc(-c3cnco3)cc2-c2cc(=O)c(C(=O)O)cn21 [Example 7, (R)-6-(tert-butyl)-2-(oxazol-5-yl)-10-oxo-5,6-dihydro-10H-pyrazolo[1,5-a]pyrido[2,2-c]pyrazine-12-carboxylic acid]	> 25	6.00 to 6.70
CC(C)(C)[C@@H]1Cn2nc(-c3cccc4cn[nH]c34)cc2-c2cc(=O)c(C(=O)O)cn21 [Example 67, (R)-6-(tert-butyl)-2-(1H-indazol-7-yl)-10-oxo-5,6-dihydro-10H-pyrazolo[1,5-a]pyrido[2,2-c]pyrazine-12-carboxylic acid]	> 25	> 7.00
CC(C)[C@@H]1Cn2nc(C3CC3)c(-c3ccccc3)c2-c2cc(=O)c(C(=O)O)cn21 [Example 130, (R)-2-cyclopropyl-6-isopropyl-10-oxo-1-phenyl-5,6-dihydro-10H-pyrazolo[1,5-a]pyrido[2,1-c]pyrazine-9-carboxylic acid]	> 25	> 7.00
CC(C)(C)[C@@H]1Cn2nc(C3CC3)c(-c3ccccc3F)c2-c2cc(=O)c(C(=O)O)cn21 [Example 148, (R)-6-(tert-butyl)-2-cyclopropyl-1-(2-fluorophenyl)-10-oxo-5,6-dihydro-10H-pyrazolo[1,5-a]pyrido[2,1-c]pyrazine-9-carboxylic acid]	> 25	> 7.00
O=C(O)c1cn2c(cc1=O)-c1c(-c3cccc(F)c3)c(-c3cccc(F)c3)nn1C[C@H]2C1COC1 [Example 209, (R)-1,2-bis(3-fluorophenyl)-6-(oxetan-3-yl)-10-oxo-5,6-dihydro-10H-pyrazolo[1,5-a]pyrido[2,1-c]pyrazine-9-carboxylic acid]	> 25	> 7.00
CC(C)(C)[C@@H]1Cn2nc(-c3c(F)cccc3C(N)=O)cc2-c2cc(=O)c(C(=O)O)cn21 [Example 53, (R)-6-(tert-butyl)-2-(2-carbamoyl-6-fluorophenyl)-10-oxo-5,6-dihydro-10H-pyrazolo[1,5-a]pyrido[2,2-c]pyrazine-12-carboxylic acid]	> 25	6.00 to 6.70
CC(C)(C)[C@@H]1Cn2nc(-c3ccc(F)cc3)c(-c3ccccc3F)c2-c2cc(=O)c(C(=O)O)cn21 [Example 169, (R)-6-(tert-butyl)-1-(2-fluorophenyl)-2-(4-fluorophenyl)-10-oxo-5,6-dihydro-10H-pyrazolo[1,5-a]pyrido[2,1-c]pyrazine-9-carboxylic acid]	10 to 25	> 7.00
CC(C)(C)[C@@H]1Cn2ncc(-c3cccs3)c2-c2cc(=O)c(C(=O)O)cn21 [Example 109, (R)-6-(tert-butyl)-10-oxo-1-(thiophen-2-yl)-5,6-dihydro-10H-pyrazolo[1,5-a]pyrido[2,1-c]pyrazine-9-carboxylic acid]	> 25	> 7.00
COc1c(-c2cc3n(n2)C[C@@H](C(C)(C)C)n2cc(C(=O)O)c(=O)cc2-3)ccc(F)c1F [Example 69, (R)-6-(tert-butyl)-2-(3,4-difluoro-2-methoxyphenyl)-10-oxo-5,6-dihydro-10H-pyrazolo[1,5-a]pyrido[2,2-c]pyrazine-12-carboxylic acid]	> 25	> 7.00
CC(C)[C@@H]1Cn2nc(-c3ccccc3F)c(-c3ccccc3F)c2-c2cc(=O)c(C(=O)O)cn21 [Example 171, (R)-1,2-bis(2-fluorophenyl)-6-isopropyl-10-oxo-5,6-dihydro-10H-pyrazolo[1,5-a]pyrido[2,1-c]pyrazine-9-carboxylic acid]	> 25	> 7.00

From patent US12264159B2, “Functionalized heterocycles as antiviral agents” (Enanta Pharmaceuticals, Inc., priority 2018, dated 2025)
